Laboratory results from publication PMC13124246 (European journal of medicinal chemistry, 2022).
Where a name gives a salt, the structure may show the parent alone.

Tests used:
[1] = system: Mouse myoblasts cell line C2C12; experiment: Host cell cytotoxicity; type: cell-based; conditions: mouse myoblasts vs T. cruzi, compounds tested up to 10 μM
cruzain or TbrCatL = experiment: Screening of the Krake et al. compound set against cruzain and TbrCatL; type: biochemical; conditions: 100 μM
TbrCatL [2] = molecular target: T1, TbrCatL (Trypanosoma brucei rhodesiense, UniProt Q95PM0); type: biochemical, T. brucei
cruzain = cruzain (Trypanosoma cruzi, UniProt P25779); experiment: Cruzain enzymatic inhibition assay; type: biochemical; conditions: for competitive behavior against cruzain: compound at 1 and 0.25 μM, substrate 0.156–10 μM
cruzain, sequence (P25779 123-337 limits assumed): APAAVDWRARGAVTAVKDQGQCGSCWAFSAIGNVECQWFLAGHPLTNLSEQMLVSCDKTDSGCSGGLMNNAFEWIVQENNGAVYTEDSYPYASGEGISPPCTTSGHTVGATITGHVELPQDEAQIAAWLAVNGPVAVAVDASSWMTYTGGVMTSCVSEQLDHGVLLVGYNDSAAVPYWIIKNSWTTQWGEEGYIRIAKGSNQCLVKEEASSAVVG

cathepsins S (human) = conditions: human enzyme; cited from earlier work
TbrCatL [3] = molecular target: T1, TbrCatL; conditions: read-out: IC50 TbrCatL; cited from earlier work
macrophages = conditions: cited from earlier work
[4] = system: T. cruzi Y strain parasites; conditions: in vitro; cited from earlier work
cathepsins B (rat) = conditions: rat enzyme; cited from earlier work

O=C(Cn1ccnc1[N+](=O)[O-])NCc1ccccc1 [Benznidazole]
SI: selectivity index determined as CC50/EC50 [1]: > 9

CN(C)CCCNCc1ccc(-c2ccc(Cl)cc2Cl)o1 [Compound 9]
average inhibition against cruzain or TbrCatL (cruzain or TbrCatL): greater than 70%

CN(C)CCCNCc1ccc(-c2ccc(Br)cc2)o1 [Compound 12]
average inhibition against cruzain or TbrCatL (cruzain or TbrCatL): greater than 70%

Clc1cc(Br)ccc1-c1ccc(CNCCN2CCOCC2)o1 [Compound 39, N-((5-(4-bromo-2-chlorophenyl)furan-2-yl)methyl)-2-morpholinoethan-1-amine dihydrochloride]
SI: selectivity index determined as CC50/EC50 [1]: > 17

N/C(S)=N/N=C/c1ccc(-c2ccc(Cl)cc2)o1 [Compound 44, 2-((5-(4-chlorophenyl)furan-2-yl)methylene)hydrazine-1-carbothioamide]
SI: selectivity index determined as CC50/EC50 [1]: > 18 | effect of 0.1% Triton X-100 on IC50 against TbrCatL (TbrCatL [2]): reduced the compounds’ potencies | IC50 against cruzain relative to IC50 against TbrCatL (fold higher) (cruzain; Table 2 values): up to 25 fold | competitive behavior against cruzain (cruzain): did not observe competitive behavior

NC(=S)N/N=C/c1ccc(-c2ccc(Br)cc2Cl)o1 [Compound 45, 2-((5-(4-bromo-2-chlorophenyl)furan-2-yl)methylene)hydrazine-1-carbothioamide]
SI: selectivity index determined as CC50/EC50 [1]: > 370 | effect of 0.1% Triton X-100 on IC50 against TbrCatL (TbrCatL [2]): reduced the compounds’ potencies | competitive behavior against cruzain (cruzain): did not observe competitive behavior

Clc1cc(Br)ccc1-c1ccc(CNCC2CCNCC2)o1 [MB12, 1-(5-(4-bromo-2-chlorophenyl)furan-2-yl)-N-(piperidin-4-ylmethyl)methanamine]
inhibition of cathepsin S (cathepsins S (human)): did not inhibit | IC50 (TbrCatL [3]): 50 µM | cytotoxicity by lactate dehydrogenase release (macrophages): no significant cytotoxicity | replication of T. cruzi Y strain parasites and release from macrophages [4]: decreased the replication | inhibition of cathepsin B (cathepsins B (rat)): did not inhibit
